Here are results for twelve compounds from patent US12390532B2, “ALK protein regulator and anti-tumor application thereof” (SHANGHAITECH UNIVERSITY, priority 2019, dated 2025).

Molecules are shown by their SMILES. Read-outs that look alike come from different tables or passages of the source.

Assay [1] has as its system SR cells (NPM-ALK, human anaplastic large cell lymphoma cells). Kind of assay: Proliferation inhibition (IC50) in SR cells, CCK8 (WST) reagent. The note with it: 72 h. The format is cell-based. How it is done: The ALK gene rearrangement positive cell line used was SR cells (NPM-ALK, human anaplastic large cell lymphoma cells). MDA-MB231 was a triple-negative breast cancer cell. Both SR cells and MDA-MB231 cells were purchased from ATCC.
The tumor cell line used was daily cultured in a 37° C. incubator containing 5% CO2. The medium was RPMI1640 supplemented with 10% FCS and Penicillin-Streptomycin.
(§1) The IC50 of the compound of the present disclosure was determined using Promega's Cell Titer Blue, Cell Titer GLO or commercially available WST reagents. The specific steps were as follows: the cells were seeded in a 96-well plate containing 100 microliters of RPMI medium containing serum at a number of 2000 cells/well. On the second day, the original drug and the compound of the present disclosure were serially diluted and added to the cells. After 72 hours of treatment with the compound of the present disclosure, the cell activity detection reagent was added to the culture medium for cell activity determination according to the instructions. The negative control was DMSO, and the positive control was the original drug, and the cells were treated in the same manner as the compound of the present disclosure. The growth inhibition of the compounds of the present disclosure on cells was plotted by Prism Graphpad software and the IC50 of the compounds of the present disclosure was counted from it.
We conducted dose-dependent experiments on the designed and synthesized compounds of the present disclosure in SR cells. […] The cells were treated with different concentrations of compounds (starting at 10 μM, 3 times dilution factor, 10 concentrations). After 72 hours, the cells were detected using CCK8 reagent (WST).

Assay [2] has as its system triple-negative breast cancer MDA-MB-231 cell line. Kind of assay: Proliferation inhibition (IC50) in MDA-MB-231 cell line. The format is cell-based. The note with it: Homo sapiens, WST reagent, 72 hours, read-out: IC50 (half inhibitory concentration) in MDA-MB-231 cell line. As to the method:
(§2) The ALK gene rearrangement positive cell line used was SR cells (NPM-ALK, human anaplastic large cell lymphoma cells). MDA-MB231 was a triple-negative breast cancer cell. Both SR cells and MDA-MB231 cells were purchased from ATCC. The 293T cells overexpressing EML4-ALK G1202R were the cells constructed and verified for correct expression by this laboratory.
as §1

Assay [3] addresses T1, ALK protein (Homo sapiens, UniProt Q9UM73).
T1 construct: We studied the total ALK protein in the anaplastic large cell lymphoma cell line SR; host or cells: SR cells (human anaplastic large cell lymphoma); the other entry of the earlier key: NPM1 (P06748, Nucleophosmin)
Briefly: Western blot of ALK protein degradation in SR cells. The format is cell-based. How it is done:
as §2
Tumor cells were seeded in a 24-well plate containing 1 ml of RPMI1640 medium at 1.5-3×10^5 cells/well. The next day, the cells were treated with different concentrations of drugs. After 16 hours, the supernatant was removed and the cells were washed with PBS. The cells were placed on ice and the cells were treated with RIPA protein lysate containing Halt protease and phosphatase inhibitors. The lysate was centrifuged at 10000RPM at 4° C. for 10 minutes, and the supernatant was collected. The same amount of protein was added to the 4×SDS sample solution, denatured at 95° C. for 5 minutes and freezen to −20° C., or protein electrophoresis was directly performed. GenScript, a 4-20% gradient protein precast gel was used as the electrophoresis gel. The electrophoresis tank and related components were purchased from Bio-rad, and the electrophoresis conditions were equal pressure 120 v for 2 hours. PVDF membrane was used for the transfer membrane, and the transfer membrane system was placed on ice with an equal current of 400 mA for one hour. After transferring the membrane, it was sealed with TBST+5% milk powder for half an hour. For the specific steps of immunoblotting, refer to the antibody instructions of Cell Signaling Technology.
DC50 (the drug concentration corresponding to protein degradation to 50%) calculation: according to the gray value of the Western blotting band after the drug is processed, the relationship curve between the drug concentration and the gray value is fitted by Prism GraphPad software to calculate the drug concentration range corresponding half of the gray value.
The cells with different concentrations (0, 10, 50, 100, 500 nM) of Brigatinib were first treated in SR cells for 16 hours. Western blotting was used on cell lysate to detect the effect of Brigatinib on the content of ALK protein (FIG. 2).
(Immunoblotting shows a protein as a band on a membrane.)

Assay [4] concerns 293T cells overexpressing EML4-ALK G1202R. Kind of assay: Proliferation inhibition (IC50) in 293T cells overexpressing EML4-ALK G1202R. Format: cell-based. The conditions noted are these: Homo sapiens, HEK-293T; WST reagent, 72 hours; read-out: IC50 (half inhibitory concentration) in 293T cells overexpressing EML4-ALK G1202R. How it is done: as §1
Assay [5] deals with lung cancer patients. The conditions noted are these: cited from earlier work.
The mark [6] stands for this setting: SR cells, WST reagent, 72 hours, read-out: IC50 (half inhibitory concentration), Brigatinib series in lymphoma cell lines.
[7] abbreviates: 16 hours, concentration range at half of the gray value, read-out: DC50 (half degradation concentration), Brigatinib series in lymphoma cell lines.
The mark [8] stands for this setting: read-out: DC50 (half degradation concentration), Alectinib series in lymphoma cell lines, 16 hours, concentration range at half of the gray value.
The mark [9] stands for this setting: read-out: IC50 (half inhibitory concentration), Alectinib series in lymphoma cell lines, SR cells, WST reagent, 72 hours.

T1 sequence (Q9UM73 with tags, fused parts or gaps): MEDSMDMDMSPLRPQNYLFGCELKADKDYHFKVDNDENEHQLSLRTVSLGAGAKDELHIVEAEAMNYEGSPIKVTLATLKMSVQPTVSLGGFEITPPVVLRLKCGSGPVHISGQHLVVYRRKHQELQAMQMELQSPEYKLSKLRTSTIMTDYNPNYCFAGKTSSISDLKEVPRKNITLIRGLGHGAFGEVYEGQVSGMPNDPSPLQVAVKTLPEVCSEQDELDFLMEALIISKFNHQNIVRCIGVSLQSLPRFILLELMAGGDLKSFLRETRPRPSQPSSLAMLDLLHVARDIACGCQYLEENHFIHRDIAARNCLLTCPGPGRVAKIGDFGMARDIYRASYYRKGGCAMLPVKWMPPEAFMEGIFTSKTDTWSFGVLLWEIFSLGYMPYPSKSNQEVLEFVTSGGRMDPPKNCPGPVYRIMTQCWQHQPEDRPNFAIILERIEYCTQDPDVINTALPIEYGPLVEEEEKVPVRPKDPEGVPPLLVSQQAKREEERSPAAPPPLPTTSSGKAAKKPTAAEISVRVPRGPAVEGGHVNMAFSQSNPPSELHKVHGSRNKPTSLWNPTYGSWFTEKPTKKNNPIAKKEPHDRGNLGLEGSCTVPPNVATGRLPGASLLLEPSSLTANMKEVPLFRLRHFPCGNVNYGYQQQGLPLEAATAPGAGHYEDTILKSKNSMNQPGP

For `COc1cc(N2CCC(NCCCC#Cc3cccc4c3CN(C3CCC(=O)NC3=O)C4=O)CC2)ccc1Nc1ncc(Cl)c(Nc2ccccc2P(C)(C)=O)n1` (stereo not shown) [SIAIS293093, 3-(4-(5-((1-(4-((5-chloro-4-((2-(dimethylphosphono)phenyl)amino)pyrimidin-2-yl)amino)-3-methoxyphenyl)piperidin-4-yl)amino)pent-1-yn-1-yl)-1-oxoisoindolin-2-yl)piperidine-2,6-dione], the figures for the IC50 in assay [1] (setting [6]) and in assay [2] were 1.3 nM and 191 ± 106 nM, respectively.
In the case of `COc1cc(N2CCC(N3CCN(Cc4ccc(CSc5cccc6c5CN(C5CCC(=O)NC5=O)C6=O)cc4)CC3)CC2)ccc1Nc1ncc(Cl)c(Nc2ccccc2P(C)(C)=O)n1` (stereo not shown) [SIAIS293189, 3-(4-((4-((4-(1-(4-((5-chloro-4-((2-(dimethylphosphono)phenyl)amino)pyrimidin-2-yl)amino)-3-methoxyphenyl)piperidin-4-yl)piperazin-1-yl)methyl)benzyl)thio)-1-oxoisoindolin-2-yl)piperidine-2,6-dione], in assay [3] (setting [7]), the DC50 is 0.05 to 0.5 nM. Further, the IC50 in assay [1] (setting [6]) came out at 0.1 ± 0.02 nM; in assay [4], 99.5 ± 8.62 nM.
For the compound `CCc1cc2c(cc1N1CCC(N3CCN(CCCC#Cc4cccc5c4CN(C4CCC(=O)NC4=O)C5=O)CC3)CC1)C(C)(C)c1[nH]c3cc(C#N)ccc3c1C2=O` (stereo not shown) [SIAIS293001, 8-(4-(4-(5-(2-(2,6-dioxopiperidin-3-yl)-1-oxoisoindolin-4-yl)pent-4-yn-1-yl)piperazin-1-yl)piperidin-1-yl)-9-ethyl-6,6-dimethyl-11-oxo-6,11-dihydro-5H-benzo[b]carbazole-3-carbonitrile], in assay [3] (setting [8]), the DC50 lay in the range of 0.05 to 0.5 nM. Moreover, in assay [1] (setting [9]), the IC50 was 2.7 nM.
For `COc1cc(N2CCC(N3CCN(C)CC3)CC2)ccc1Nc1ncc(Cl)c(Nc2ccccc2P(C)(C)=O)n1` [Brigatinib, reference compound], the “degradation effect on ALK protein” value in assay [3] (16 hours, concentrations up to 500 nM) is “no degradation effect”. Also, the IC50 in assay [1] (setting [6]) was 6.9 nM; in assay [2], 381 ± 41 nM; in assay [4] it was 473 ± 129 nM. Further, in assay [5], the control rate is on record as 86%. Besides, in assay [5], the effective rate was 55%.
Turning to `COc1cc(N2CCC(N3CCN(CCSc4cccc5c4CN(C4CCC(=O)NC4=O)C5=O)CC3)CC2)ccc1Nc1ncc(Cl)c(Nc2ccccc2P(C)(C)=O)n1` (stereo not shown) [SIAIS352011, 3-(4-((2-(4-(1-(4-((5-chloro-4-((2-(dimethylphosphono)phenyl)amino)pyrimidin-2-yl)amino)-3-methoxyphenyl)piperidin-4-yl)piperazin-1-yl)ethyl)thio)-1-oxoisoindolin-2-yl)piperidine-2,6-dione], the DC50 in assay [3] (setting [7]) lay within 0.5 to 5 nM. Also, the IC50 in assay [1] (setting [6]) was 1.2 ± 0.3 nM; in assay [2] it was 4.9 ± 1.04 nM.
Regarding `CCc1cc2c(cc1N1CCC(N3CCN(C(=O)CNc4cccc5c4CN(C4CCC(=O)NC4=O)C5=O)CC3)CC1)C(C)(C)c1[nH]c3cc(C#N)ccc3c1C2=O` (stereo not shown) [SIAIS262091, 8-(4-(4-{(2-(2,6-dioxopiperidin-3-yl)-1-oxoisoindolin-4-yl)aminoacetyl)piperazin-1-yl)piperidin-1-yl)-9-ethyl-6,6-dimethyl-11-oxo-6,11-dihydro-5H-benzo[b]carbazole-3-carbonitrile], the “concentration from which a degradation effect on ALK protein is shown” value (“concentration” for short) in assay [3] is recorded as “less than 0.005 nM”. Also, the DC50 in assay [3] (setting [8]) was 0.05 to 0.5 nM. Also, in assay [1] (setting [9]), the IC50 was about 0.34 nM.
As to `COc1cc(N2CCC(N3CCN(CCCCC#Cc4cccc5c4CN(C4CCC(=O)NC4=O)C5=O)CC3)CC2)ccc1Nc1ncc(Cl)c(Nc2ccccc2P(C)(C)=O)n1` (stereo not shown) [SIAIS262040, 3-(4-(6-(4-(1-(4-((5-chloro-4-((2-(dimethylphosphono)phenyl)amino)pyrimidin-2-yl)amino)-3-methoxyphenyl)piperidin-4-yl)piperazin-1-yl)hex-1-yn-1-yl)-1-oxoisoindolin-2-yl)piperidine-2,6-dione], in assay [3] (setting [7]), the DC50 is 0.05 to 0.5 nM. The IC50 in assay [1] (setting [6]) was determined as 1.1 nM.
Consider `CCc1cc2c(cc1N1CCC(N3CCN(C(=O)COc4cccc5c4C(=O)N(C4CCC(=O)NC4=O)C5=O)CC3)CC1)C(C)(C)c1[nH]c3cc(C#N)ccc3c1C2=O` (stereo not shown) [SIAIS293010, 8-(4-(4-(2-((2-(2,6-dioxopiperidin-3-yl)-1,3-dioxoisoindolin-4-yl)oxy)acetyl)piperazin-1-yl)piperidin-1-yl)-9-ethyl-6,6-dimethyl-11-oxo-6,11-dihydro-5H-benzo[b]carbazole-3-carbonitrile], for which the “concentration” value in assay [3] was determined as 0.5 nM. In addition, the DC50 in assay [3] (setting [8]) lay within 0.05 to 0.5 nM. The IC50 in assay [1] (setting [9]) turned out to be 2 nM.
`COc1cc(N2CCC(N3CCN(CCCCc4cccc5c4CN(C4CCC(=O)NC4=O)C5=O)CC3)CC2)ccc1Nc1ncc(Cl)c(Nc2ccccc2P(C)(C)=O)n1` (stereo not shown) [SIAIS352059, 3-(4-(4-(4-(1-(4-((5-chloro-4-((2-(dimethylphosphono)phenyl)amino)pyrimidin-2-yl)amino)-3-methoxyphenyl)piperidin-4-yl)piperazin-1-yl)butyl)-1-oxoisoindolin-2-yl)piperidine-2,6-dione]: the IC50 in assay [1] (setting [6]) came to 1.1 ± 0.3 nM; in assay [2] it was 75 ± 58 nM.
For the compound `COc1cc(N2CCC(N3CCN(CCCC#Cc4cccc5c4CN(C4CCC(=O)NC4=O)C5=O)CC3)CC2)ccc1Nc1ncc(Cl)c(Nc2ccccc2P(C)(C)=O)n1` (stereo not shown) [SIAIS262039, 3-(4-(5-(4-(1-(4-((5-chloro-4-((2-(dimethylphosphono)phenyl)amino)pyrimidin-2-yl)amino)-3-methoxyphenyl)piperidin-4-yl)piperazin-1-yl)pent-1-yn-1-yl)-1-oxoisoindolin-2-yl)piperidine-2,6-dione], the “concentration” value in assay [3] is listed as “less than 0.005 nM”. The values for the IC50 in assay [1] (setting [6]) and in assay [2] were about 1 nM and 22.5 ± 2.26 nM, respectively.
For the compound `COc1cc(N2CCC(N3CCN(CCCCCc4cccc5c4CN(C4CCC(=O)NC4=O)C5=O)CC3)CC2)ccc1Nc1ncc(Cl)c(Nc2ccccc2P(C)(C)=O)n1` (stereo not shown) [SIAIS352008, 3-(4-(5-(4-(1-(4-((5-chloro-4-((2-(dimethylphosphono)phenyl)amino)pyrimidin-2-yl)amino)-3-methoxyphenyl)piperidin-4-yl)piperazin-1-yl)pentyl)-1-oxoisoindolin-2-yl)piperidine-2,6-dione], the DC50 in assay [3] (setting [7]) lay within 0.05 to 0.5 nM. Also, the IC50 in assay [1] (setting [6]) was 2.1 ± 1.2 nM; in assay [2], 4.5 ± 0.5 nM.
Regarding `COc1cc(N2CCC(N3CCN(CCCCCCC#Cc4cccc5c4CN(C4CCC(=O)NC4=O)C5=O)CC3)CC2)ccc1Nc1ncc(Cl)c(Nc2ccccc2P(C)(C)=O)n1` (stereo not shown) [SIAIS293017, 3-(4-(8-(4-(1-(4-((5-chloro-4-((2-(dimethylphosphono)phenyl)amino)pyrimidin-2-yl)amino)-3-methoxyphenyl)piperidin-4-yl)piperazin-1-yl)oct-1-yn-1-yl)-1-oxoisoindolin-2-yl)piperidine-2,6-dione], the DC50 in assay [3] (setting [7]) was in the range of 0.5 to 5 nM. In addition, in assay [1] (setting [6]), the IC50 worked out at 1.5 nM.
